{
  "source": "patent US11524966B1",
  "about": "(Valo Early Discovery, Inc., priority 2017, dated 2022)",
  "data": [
    {"target": "T1, USP28 (USP28-5(1-1077)-TEV-6*His; LifeSensors) (Homo sapiens, UniProt Q96RU2)", "T1 construct": "construct USP28 (USP28-5(1-1077)-TEV-6*His; LifeSensors); TEV cleavage site (C); 6xHis (C); purchased LifeSensors", "T1 sequence (Q96RU2 1-1077)": "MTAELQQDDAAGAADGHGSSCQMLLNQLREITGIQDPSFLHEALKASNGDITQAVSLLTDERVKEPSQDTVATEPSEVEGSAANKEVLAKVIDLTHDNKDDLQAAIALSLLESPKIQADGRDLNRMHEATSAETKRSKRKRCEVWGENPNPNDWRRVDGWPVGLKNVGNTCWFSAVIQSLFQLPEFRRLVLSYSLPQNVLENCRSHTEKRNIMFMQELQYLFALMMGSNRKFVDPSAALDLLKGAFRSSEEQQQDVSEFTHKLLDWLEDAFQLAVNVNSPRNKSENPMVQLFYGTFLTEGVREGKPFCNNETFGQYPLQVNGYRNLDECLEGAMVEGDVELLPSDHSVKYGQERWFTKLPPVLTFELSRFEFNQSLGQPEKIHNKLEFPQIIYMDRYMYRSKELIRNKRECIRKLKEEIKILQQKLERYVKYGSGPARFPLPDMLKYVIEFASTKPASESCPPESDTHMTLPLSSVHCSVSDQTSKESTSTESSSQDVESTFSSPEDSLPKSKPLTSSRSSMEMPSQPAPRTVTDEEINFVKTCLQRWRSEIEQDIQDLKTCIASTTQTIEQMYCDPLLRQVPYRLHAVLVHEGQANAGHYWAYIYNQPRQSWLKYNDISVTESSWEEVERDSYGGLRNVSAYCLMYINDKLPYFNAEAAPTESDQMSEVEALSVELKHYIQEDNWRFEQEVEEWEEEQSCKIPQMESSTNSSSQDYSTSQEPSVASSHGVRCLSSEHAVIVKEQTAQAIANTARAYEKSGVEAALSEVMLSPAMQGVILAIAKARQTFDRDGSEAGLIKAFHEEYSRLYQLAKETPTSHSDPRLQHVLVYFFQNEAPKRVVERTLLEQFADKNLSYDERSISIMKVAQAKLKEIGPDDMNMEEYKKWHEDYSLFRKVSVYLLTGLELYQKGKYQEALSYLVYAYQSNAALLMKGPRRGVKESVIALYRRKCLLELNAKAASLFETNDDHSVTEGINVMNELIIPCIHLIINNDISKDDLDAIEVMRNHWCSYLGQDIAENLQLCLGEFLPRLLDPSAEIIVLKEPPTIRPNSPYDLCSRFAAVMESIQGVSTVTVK", "experiment": "Ubiquitin-Rhodamine 110 Assay for USP28 Activity, Example A-1(b)", "type": "biochemical", "details": "Ubiquitin-Rhodamine 110 assay, Example A-1(b)", "in_short": "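Single-point screening used 10 μM compound with 90 min room-temperature incubation; follow-up dose-responses (25 μM top, 3-fold) used 75 pM USP28 1-1077 construct, 30 min compound preincubation, 25 nM Ub-Rh110, 20 min reaction, citric acid quench. Rh110 fluorescence normalised to no-enzyme and DMSO controls; IC50 from 4-parameter logistic fit.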", "values": [
      {"smiles": "Cc1cnc2c(N)c(C(=O)N[C@H]3COc4cc(N5CC6CCC(C5)N6)c(F)cc4C3)sc2n1", "note": "(single isomer, unassigned) [Example 40]", "USP28 A-1(b) IC50 range": "+++ (0.05-0.2 μM)"},
      {"smiles": "Cc1cnc2c(N)c(C(=O)N[C@@H]3COc4cc(N5CC6CCC(C5)N6)c(F)cc4C3)sc2n1", "note": "(single isomer, unassigned) [Example 41]", "USP28 A-1(b) IC50 range": "+ (>2 μM)"},
      {"smiles": "CCc1cnc2sc(C(=O)N[C@H]3COc4cc(N5CCNCC5)ccc4C3)c(N)c2n1", "note": "[Example 36, (R)-7-amino-2-ethyl-N-(7-(piperazin-1-yl)chroman-3-yl)thieno[2,3-b]pyrazine-6-carboxamide]", "USP28 A-1(b) IC50 range": "++ (0.2-2 μM)"},
      {"smiles": "CCc1cnc2sc(C(=O)N[C@@H]3COc4cc(N5CCNCC5)ccc4C3)c(N)c2n1", "note": "[Example 37, (S)-7-amino-2-ethyl-N-(7-(piperazin-1-yl)chroman-3-yl)thieno[2,3-b]pyrazine-6-carboxamide]", "USP28 A-1(b) IC50 range": "+ (>2 μM)"},
      {"smiles": "O=C(N[C@H]1COc2cc(N3CCNCC3)ccc2C1)c1cnc2c(ccn2C(F)F)c1", "note": "[Example 38, (R)-1-(difluoromethyl)-N-(7-(piperazin-1-yl)chroman-3-yl)-1H-pyrrolo[2,3-b]pyridine-5-carboxamide]", "USP28 A-1(b) IC50 range": "+ (>2 μM)"},
      {"smiles": "O=C(N[C@@H]1COc2cc(N3CCNCC3)ccc2C1)c1cnc2c(ccn2C(F)F)c1", "note": "[Example 39, (S)-1-(difluoromethyl)-N-(7-(piperazin-1-yl)chroman-3-yl)-1H-pyrrolo[2,3-b]pyridine-5-carboxamide]", "USP28 A-1(b) IC50 range": "+ (>2 μM)"},
      {"smiles": "Cc1ccc2c(N)c(C(=O)N[C@H]3COc4cc(N5C[C@H]6CNC[C@@H]6C5)ccc4C3)sc2n1", "note": "[Example 43, 3-amino-N-((R)-7-((3aR,6aR)-hexahydropyrrolo[3,4-c]pyrrol-2(1H)-yl)chroman-3-yl)-6-methylthieno[2,3-b]pyridine-2-carboxamide]", "USP28 A-1(b) IC50 range": "+ (>2 μM)"},
      {"smiles": "Cc1ccc2c(N)c(C(=O)N[C@@H]3COc4cc(N5C[C@H]6CNC[C@@H]6C5)ccc4C3)sc2n1", "note": "[Example 44, 3-amino-N-((S)-7-((3aR,6aR)-hexahydropyrrolo[3,4-c]pyrrol-2(1H)-yl)chroman-3-yl)-6-methylthieno[2,3-b]pyridine-2-carboxamide]", "USP28 A-1(b) IC50 range": "+ (>2 μM)"},
      {"smiles": "Nc1c(C(=O)N[C@H]2COc3cc(N4CCNCC4)ccc3C2)sc2nc(C3CC3)sc12", "note": "[Example 45]", "USP28 A-1(b) IC50 range": "++ (0.2-2 μM)"},
      {"smiles": "Cc1nc2sc(C(=O)N[C@@H]3COc4cc(N5CC6CCC(C5)N6)c(F)cc4C3)c(N)c2s1", "note": "[Example 46, N-((3S)-7-(3 8-diazabicyclo[3.2.1]octan-3-yl)-6-fluorochroman-3-yl)-6-amino-2-methylthieno[2,3-d]thiazole-5-carboxamide]", "USP28 A-1(b) IC50 range": "++ (0.2-2 μM)"},
      {"smiles": "Cc1nc2sc(C(=O)N[C@H]3COc4cc(N5CC6CCC(C5)N6)c(F)cc4C3)c(N)c2s1", "note": "[Example 47, N-((3R)-7-(3,8-diazabicyclo[3.2.1]octan-3-yl)-6-fluorochroman-3-yl)-6-amino-2-methylthieno[2,3-d]thiazole-5-carboxamide]", "USP28 A-1(b) IC50 range": "+ (>2 μM)"},
      {"smiles": "Cc1ccc2c(N)c(C(=O)N[C@H]3COc4cc(N5CCNCC5)cc(Cl)c4C3)sc2n1", "note": "[Example 48, (R)-3-amino-N-(5-chloro-7-(piperazin-1-yl)chroman-3-yl)-6-methylthieno[2,3-b]pyridine-2-carboxamide]", "USP28 A-1(b) IC50 range": "+++ (0.05-0.2 μM)"},
      {"smiles": "Cc1ccc2c(N)c(C(=O)N[C@@H]3COc4cc(N5CCNCC5)cc(Cl)c4C3)sc2n1", "note": "[Example 49, (S)-3-amino-N-(5-chloro-7-(piperazin-1-yl)chroman-3-yl)-6-methylthieno[2,3-b]pyridine-2-carboxamide]", "USP28 A-1(b) IC50 range": "+ (>2 μM)"},
      {"smiles": "O=C(N[C@H]1COc2cc(N3CC4CCC(C3)N4)ccc2C1)c1cnc2c(c1)CCCN2", "note": "[Example 50, N-((3R)-7-(3,8-diazabicyclo[3.2.1]octan-3-yl)chroman-3-yl)-5,6,7,8-tetrahydro-1,8-naphthyridine-3-carboxamide]", "USP28 A-1(b) IC50 range": "++ (0.2-2 μM)"},
      {"smiles": "O=C(N[C@H]1COc2cc(N3CC4CCC(C3)N4)ccc2C1)c1cnc2c(c1)CCCO2", "note": "[Example 51, N-((3R)-7-(3,8-diazabicyclo[3.2.1]octan-3-yl)chroman-3-yl)-3,4-dihydro-2H-pyrano[2,3-b]pyridine-6-carboxamide]", "USP28 A-1(b) IC50 range": "+ (>2 μM)"},
      {"smiles": "O=C(N[C@H]1COc2cc(N3CCNCC3)ccc2C1)c1ccc(NCc2ccccc2)nc1", "note": "[Example 52, (R)-6-(benzylamino)-N-(7-(piperazin-1-yl)chroman-3-yl)nicotinamide]", "USP28 A-1(b) IC50 range": "+ (>2 μM)"},
      {"smiles": "C[C@H](Nc1ccc(C(=O)N[C@H]2COc3cc(N4CCNCC4)ccc3C2)cn1)c1ccccc1", "note": "[Example 53, 6-(((S)-1-phenylethyl)amino)-N-((R)-7-(piperazin-1-yl)chroman-3-yl)nicotinamide]", "USP28 A-1(b) IC50 range": "+ (>2 μM)"},
      {"smiles": "C[C@@H](Nc1ccc(C(=O)N[C@H]2COc3cc(N4CCNCC4)ccc3C2)cn1)c1ccccc1", "note": "[Example 54, 6-(((R)-1-phenylethyl)amino)-N-((R)-7-(piperazin-1-yl)chroman-3-yl)nicotinamide]", "USP28 A-1(b) IC50 range": "+ (>2 μM)"},
      {"smiles": "Cc1ccc2c(N)c(C(=O)N[C@H]3COc4c(F)c(N5CCNCC5)cc(F)c4C3)sc2n1", "note": "[Example 55, (R)-3-amino-N-(5,8-difluoro-7-(piperazin-1-yl)chroman-3-yl)-6-methylthieno[2,3-b]pyridine-2-carboxamide]", "USP28 A-1(b) IC50 range": "++++ (0.001-0.05 μM)"},
      {"smiles": "Cc1nc2sc(C(=O)N[C@H]3COc4c(F)c(N5CCNCC5)cc(F)c4C3)c(N)c2s1", "note": "[Example 56, (R)-6-amino-N-(5,8-difluoro-7-(piperazin-1-yl)chroman-3-yl)-2-methylthieno[2,3-d]thiazole-5-carboxamide]", "USP28 A-1(b) IC50 range": "+++ (0.05-0.2 μM)"},
      {"smiles": "O=C(N[C@H]1COc2cc(N3CCNCC3)ccc2C1)c1cnc2c(c1)CC[C@H]2O", "note": "[Example 57, (R)-7-hydroxy-N-((R)-7-(piperazin-1-yl)chroman-3-yl)-6,7-dihydro-5H-cyclopenta[b]pyridine-3-carboxamide]", "USP28 A-1(b) IC50 range": "+ (>2 μM)"},
      {"smiles": "O=C(N[C@H]1COc2cc(N3CCNCC3)ccc2C1)c1cnc2c(c1)CC[C@@H]2O", "note": "[Example 58, (S)-7-hydroxy-N-((R )-7-(piperazin-1-yl)chroman-3-yl)-6,7-dihydro-5H-cyclopenta[b]pyridine-3-carboxamide]", "USP28 A-1(b) IC50 range": "+ (>2 μM)"},
      {"smiles": "O=C(N[C@H]1COc2cc(N3CCNCC3)ccc2C1)c1cnc2c(ccn2Cc2ccccc2)c1", "note": "[Example 59, (R)-1-benzyl-N-(7-(piperazin-1-yl)chroman-3-yl)-1H-pyrrolo[2,3-b]pyridine-5-carboxamide]", "USP28 A-1(b) IC50 range": "+++ (0.05-0.2 μM)"},
      {"smiles": "Cc1cnc2c(N)c(C(=O)N[C@H]3COc4c(C#N)c(N5CCNCC5)cc(F)c4C3)sc2n1", "note": "[Example 60, (R)-7-amino-N-(8-cyano-5-fluoro-7-(piperazin-1-yl)chroman-3-yl)-3-methylthieno[2,3-b]pyrazine-6-carboxamide]", "USP28 A-1(b) IC50 range": "++ (0.2-2 μM)"},
      {"smiles": "Cc1ccc2c(N)c(C(=O)N[C@H]3COc4cc(N5CCNCC5)c(F)c(F)c4C3)sc2n1", "note": "[Example 61, (R)-3-amino-N-(5,6-difluoro-7-(piperazin-1-yl)chroman-3-yl)-6-methylthieno[2,3-b]pyridine-2-carboxamide]", "USP28 A-1(b) IC50 range": "+++ (0.05-0.2 μM)"},
      {"smiles": "Cc1ccc2c(N)c(C(=O)N[C@H]3COc4cc([C@H]5CCNC[C@H]5O)ccc4C3)sc2n1", "note": "[Example 62, 3-amino-N-((R)-7-((3S,4R)-3-hydroxypiperidin-4-yl)chroman-3-yl)-6-methylthieno[2,3-b]pyridine-2-carboxamide]", "USP28 A-1(b) IC50 range": "++++ (0.001-0.05 μM)"},
      {"smiles": "Cc1ccc2c(N)c(C(=O)N[C@H]3COc4cc([C@@H]5CCNC[C@@H]5O)ccc4C3)sc2n1", "note": "[Example 63, 3-amino-N-((R)-7-((3R,4S)-3-hydroxypiperidin-4-yl)chroman-3-yl)-6-methylthieno[2,3-b]pyridine-2-carboxamide]", "USP28 A-1(b) IC50 range": "+++ (0.05-0.2 μM)"},
      {"smiles": "C[C@H]1CCc2cc(C(=O)N[C@H]3COc4cc(N5CC6CCC(C5)N6)ccc4C3)cnc2N1", "note": "[Example 73, (7S)-N-((3R)-7-(3,8-diazabicyclo[3.2.1]octan-3-yl)chroman-3-yl)-7-methyl-5,6,7,8-tetrahydro-1,8-naphthyridine-3-carboxamide]", "USP28 A-1(b) IC50 range": "+ (>2 μM)"}
    ]}
  ]
}
